# Test results: publication PMC3617406 (Molecular pharmaceutics, 2013)
# Structures can show the parent of a compound that is named as a salt. Where two headings read alike, the source gives them in different places.
# Columns and labels:
# human NTCP = biological target: T1, human NTCP (Homo sapiens, UniProt Q14973); format: cell-based; conditions: for potency estimated from few doses: read-out: Estimated Ki for NTCP; for NTCP inhibitor or non-inhibitor: inhibitor = Ki less than 300 μM
# T1 sequence (Q14973 1-349): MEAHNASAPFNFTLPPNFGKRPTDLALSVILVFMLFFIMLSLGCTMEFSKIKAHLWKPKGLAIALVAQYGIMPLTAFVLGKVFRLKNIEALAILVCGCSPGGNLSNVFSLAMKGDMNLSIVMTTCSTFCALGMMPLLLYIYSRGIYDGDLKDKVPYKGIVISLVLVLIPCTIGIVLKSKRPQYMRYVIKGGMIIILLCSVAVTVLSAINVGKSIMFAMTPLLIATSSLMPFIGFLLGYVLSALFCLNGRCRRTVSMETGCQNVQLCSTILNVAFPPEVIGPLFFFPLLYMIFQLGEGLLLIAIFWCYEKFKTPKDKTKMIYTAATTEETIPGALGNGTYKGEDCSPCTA
# human ASBT = biological target: T2, human ASBT (Homo sapiens, UniProt Q12908); format: cell-based; conditions: for potency estimated from few doses: read-out: Estimated Ki for ASBT; for ASBT inhibitor or non-inhibitor: inhibitor = Ki below 300 μM; for taurocholate uptake into ASBT-MDCK cells, percent of control: single drug concentration, same as in NTCP screening (typically 100 μM); for fold more potent ASBT inhibition than NTCP inhibition: Ki values of Table 4 and 5
# T2 sequence (Q12908 1-348): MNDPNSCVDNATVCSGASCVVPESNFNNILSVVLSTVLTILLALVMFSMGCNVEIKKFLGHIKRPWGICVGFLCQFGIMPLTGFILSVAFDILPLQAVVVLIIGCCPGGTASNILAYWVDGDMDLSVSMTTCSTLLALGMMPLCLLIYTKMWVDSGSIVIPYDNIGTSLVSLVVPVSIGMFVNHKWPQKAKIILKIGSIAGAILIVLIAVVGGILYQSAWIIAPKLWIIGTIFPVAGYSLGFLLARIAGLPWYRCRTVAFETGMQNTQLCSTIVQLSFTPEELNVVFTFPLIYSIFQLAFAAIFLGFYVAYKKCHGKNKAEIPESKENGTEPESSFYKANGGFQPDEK
potency estimated from few doses (human NTCP) [µM],potency estimated from few doses (human ASBT) [µM],Compound,also measured
513 ± 169,313 ± 53,CCC1(C)CC(=O)NC1=O (centres unmarked) [Ethosuximide],
411 ± 139,110 ± 3,Nc1nc(N)c2nc(-c3ccccc3)c(N)nc2n1 [Triamterene],
2010 ± 5840,> 100,CCOc1ccc2ccccc2c1C(=O)N[C@@H]1C(=O)N2[C@@H]1SC(C)(C)[C@@H]2C(=O)O [Nafcillin],
,11.9 ± 2.7,Clc1ccc(C(Cn2ccnc2)OCc2ccsc2Cl)c(Cl)c1 (centres unmarked) [Tioconazole],"ASBT inhibitor or non-inhibitor (human ASBT): ASBT inhibitors; taurocholate uptake into ASBT-MDCK cells, percent of control (human ASBT): below 50%"
> 100,1420,C[C@H]1[C@H](NC(=O)/C(=N\OC(C)(C)C(=O)O)c2csc(N)n2)C(=O)N1S(=O)(=O)O [Aztreonam],
673 ± 130,177 ± 32,Cc1ccc(NC(=O)c2ccc(CN3CCN(C)CC3)cc2)cc1Nc1nccc(-c2cccnc2)n1 [Imatinib],
250 ± 50,194 ± 24,Nc1ccc(S(N)(=O)=O)cc1 [Sulfanilamide],NTCP inhibitor or non-inhibitor (human NTCP): inhibited NTCP
,164 ± 34,CC(C)c1nc(N(C)S(C)(=O)=O)nc(-c2ccc(F)cc2)c1/C=C/[C@@H](O)C[C@@H](O)CC(=O)O [Rosuvastatin],
> 100,377 ± 442,COC(=O)[C@@H]1[C@H]2C[C@H]3c4[nH]c5ccccc5c4CCN3C[C@@H]2CC[C@@H]1O [Yohimbine],
336 ± 101,,CCN(CC)CCCC(C)Nc1ccnc2cc(Cl)ccc12 (centres unmarked) [Chloroquine],
369 ± 83,223 ± 90,Cc1ncc([N+](=O)[O-])n1CCO [Metronidazole],ASBT inhibitor or non-inhibitor (human ASBT): ASBT inhibitors
> 100,137 ± 48,CN1CCC[C@@H]1Cc1c[nH]c2ccc(CCS(=O)(=O)c3ccccc3)cc12 [Eletriptan],fold more potent ASBT inhibition than NTCP inhibition (human ASBT): ≥ 10 fold
,30.9 ± 1.7,COCCOC(=O)C1=C(C)NC(C)=C(C(=O)OC(C)C)C1c1cccc([N+](=O)[O-])c1 (centres unmarked) [Nimodipine],"taurocholate uptake into ASBT-MDCK cells, percent of control (human ASBT): below 50%"
,47.3 ± 9.7,CC(C)c1nc(CN(C)C(=O)N[C@H](C(=O)N[C@@H](Cc2ccccc2)C[C@H](O)[C@H](Cc2ccccc2)NC(=O)OCc2cncs2)C(C)C)cs1 [Ritonavir],"taurocholate uptake into ASBT-MDCK cells, percent of control (human ASBT): below 50%"
89.1 ± 65,21.6 ± 2.9,COC(=O)[C@H]1[C@H]2C[C@@H]3c4[nH]c5cc(OC)ccc5c4CCN3C[C@H]2C[C@@H](OC(=O)c2cc(OC)c(OC)c(OC)c2)[C@@H]1OC [Reserpine],NTCP inhibitor or non-inhibitor (human NTCP): inhibited human NTCP; NTCP inhibitor or non-inhibitor (human NTCP; listed as reserpine): inhibited NTCP
> 100,246 ± 119,CCCCc1ncc(/C=C(\Cc2cccs2)C(=O)O)n1Cc1ccc(C(=O)O)cc1 [Eprosartan],NTCP inhibitor or non-inhibitor (human NTCP): did not inhibit NTCP
387 ± 130,2280 ± 978,NC(N)=Nc1nc(CSCCC(N)=NS(N)(=O)=O)cs1 [Famotidine],
> 100,318 ± 169,C[C@H]1O[C@H](O[C@H]2[C@H](O)[C@@H](O)[C@@H](O[C@H]3[C@H](O)[C@@H](O)C(O)O[C@@H]3CO)O[C@@H]2CO)[C@H](O)[C@@H](O)[C@@H]1N[C@H]1C=C(CO)[C@@H](O)[C@H](O)[C@H]1O (some centres unmarked) [Acarbose],
,168 ± 10,NS(=O)(=O)c1cc2c(cc1C(F)(F)F)NC(Cc1ccccc1)NS2(=O)=O (centres unmarked) [Bendroflumethiazide],
99.5 ± 14,17.9 ± 2.3,COC(=O)C1=C(C)NC(C)=C(C(=O)OC(C)C)C1c1cccc2nonc12 (centres unmarked) [Isradipine],"NTCP inhibitor or non-inhibitor (human NTCP): NTCP inhibitors; taurocholate uptake into ASBT-MDCK cells, percent of control (human ASBT): below 50%"
1490 ± 581,239 ± 117,C=C[C@H]1C[N@@]2CC[C@H]1C[C@H]2[C@H](O)c1ccnc2ccc(OC)cc12 [Quinine],

potency estimated from few doses (human NTCP) [µM],potency estimated from few doses (human ASBT) [µM],Compound,also measured
77.1 ± 38,57 ± 25,CCC(C)n1ncn(-c2ccc(N3CCN(c4ccc(OCC5COC(Cn6cncn6)(c6ccc(Cl)cc6Cl)O5)cc4)CC3)cc2)c1=O (centres unmarked) [Itraconazole],NTCP inhibitor or non-inhibitor (human NTCP): NTCP inhibitors; ASBT inhibitor or non-inhibitor (human ASBT): ASBT inhibitors
> 100,103 ± 23,COc1ccc2[nH]c([S+]([O-])Cc3ncc(C)c(OC)c3C)nc2c1 (centres unmarked) [Omeprazole],fold more potent ASBT inhibition than NTCP inhibition (human ASBT): ≥ 10 fold
202 ± 32,21.7 ± 2.1,CC[C@H](C)C(=O)O[C@H]1C[C@@H](C)C=C2C=C[C@H](C)[C@H](CC[C@@H]3C[C@@H](O)CC(=O)O3)[C@H]21 [Lovastatin],"NTCP inhibitor or non-inhibitor (human NTCP): NTCP inhibitors; taurocholate uptake into ASBT-MDCK cells, percent of control (human ASBT): below 50%"
> 100,1890 ± 257,N[C@@H](C(=O)N[C@@H]1C(=O)N2C(C(=O)O)=C(Cl)CS[C@H]12)c1ccccc1 [Cefaclor],
1290,1460,Nc1nc(NC2CC2)c2ncn([C@H]3C=C[C@@H](CO)C3)c2n1 [Abacavir],
> 100,162 ± 82,CCOC(=O)[C@H](CCc1ccccc1)N[C@@H](C)C(=O)N1CCC[C@H]1C(=O)O [Enalapril],fold more potent ASBT inhibition than NTCP inhibition (human ASBT): ≥ 10 fold
,65.8 ± 9.2,O=C(c1ccc(OCCN2CCCCC2)cc1)c1c(-c2ccc(O)cc2)sc2cc(O)ccc12 [Raloxifene HCl],
53.8 ± 3.3,4.61 ± 0.88,O=C1[C@H](CC[C@H](O)c2ccc(F)cc2)[C@@H](c2ccc(O)cc2)N1c1ccc(F)cc1 [Ezetimibe],"NTCP inhibitor or non-inhibitor (human NTCP): NTCP inhibitors; taurocholate uptake into ASBT-MDCK cells, percent of control (human ASBT): below 50%"
335 ± 177,89.2 ± 32,C[C@]12C=CC(=O)C=C1CC[C@@H]1[C@@H]2[C@@H](O)C[C@@]2(C)[C@H]1CC[C@]2(O)C(=O)CO [Prednisolone],
> 100,> 100,CN1CCN(CC/C=C2/c3ccccc3Sc3ccc(S(=O)(=O)N(C)C)cc32)CC1 [Thiothixene],
,,COCc1c(C(C)C)nc(C(C)C)c(/C=C/[C@@H](O)C[C@@H](O)CC(=O)O)c1-c1ccc(F)cc1 [Cerivastatin],NTCP inhibitor or non-inhibitor (human NTCP): NTCP inhibitors
> 100,811 ± 243,CC(C)C[C@H](NC(=O)[C@H](Cc1ccccc1)NC(=O)c1cnccn1)B(O)O [Bortezomib],
767 ± 268,50.7 ± 5.9,CN(C)CCCN1c2ccccc2Sc2ccc(Cl)cc21 [Chlorpromazine],"fold more potent ASBT inhibition than NTCP inhibition (human ASBT): ≥ 10 fold; taurocholate uptake into ASBT-MDCK cells, percent of control (human ASBT): below 50%"
416 ± 624,18.5 ± 3.9,Clc1ccc(COC(Cn2ccnc2)c2ccc(Cl)cc2Cl)cc1 (centres unmarked) [Econazole],"fold more potent ASBT inhibition than NTCP inhibition (human ASBT): ≥ 10 fold; ASBT inhibitor or non-inhibitor (human ASBT): ASBT inhibitors; taurocholate uptake into ASBT-MDCK cells, percent of control (human ASBT): below 50%"
601 ± 300,61.3 ± 16,Clc1ccc(COC(Cn2ccnc2)c2ccc(Cl)cc2Cl)c(Cl)c1 (centres unmarked) [Miconazole],ASBT inhibitor or non-inhibitor (human ASBT): ASBT inhibitors
309 ± 144,142 ± 3,COC(=O)C1=C(C)NC(C)=C(C(=O)OCCN(C)Cc2ccccc2)C1c1cccc([N+](=O)[O-])c1 (centres unmarked) [Nicardipine],
> 100,1020 ± 49,CCOC(=O)C1=C[C@@H](OC(CC)CC)[C@H](NC(C)=O)[C@@H](N)C1 [Oseltamivir],
,139 ± 58,CCCCc1nc(Cl)c(CO)n1Cc1ccc(-c2ccccc2-c2nn[nH]n2)cc1 [Losartan],
,31.7 ± 6.5,CCOC(=O)C1=C(C)NC(C)=C(C(=O)OC)C1c1cccc([N+](=O)[O-])c1 (centres unmarked) [Nitrendipine],
,1050 ± 422,CCCc1nc(C(C)(C)O)c(C(=O)O)n1Cc1ccc(-c2ccccc2-c2nnn[nH]2)cc1 [Olmesartan],ASBT inhibitor or non-inhibitor (human ASBT): inhibited NTCP but not ASBT

Compound,potency estimated from few doses (human NTCP) [µM],potency estimated from few doses (human ASBT) [µM],also measured
COc1ccc(CC(C)NCC(O)c2ccc(O)c(NC=O)c2)cc1 (centres unmarked) [Formoterol],> 100,175 ± 96,
COc1cccc2c1C(=O)c1c(O)c3c(c(O)c1C2=O)C[C@@](O)(C(C)=O)C[C@@H]3O[C@H]1C[C@H](N)[C@H](O)[C@H](C)O1 [Daunorubicin],> 100,> 100,
CC(=O)CC(c1ccccc1)c1c(O)c2ccccc2oc1=O (centres unmarked) [Warfarin],> 100,97.4 ± 26,
